Assay results taken from publication PMC7819857, “Identification of Inhibitors of Integrin Cytoplasmic Domain Interactions With Syk” (Frontiers in Immunology, 2021).

Legend:
[1] = test system: FcγRI signaling via Syk in THP-1 cells; assay: FcγRI-crosslinking-induced phosphorylation of Syk in THP-1 cells; type: cell-based, human; settings: 100 µM loaded cells, anti-FcγRI mAb 276426
Method: Syk phosphorylation assays were performed by immobilizing vascular cell adhesion molecule-1 (VCAM)-1 (3 ug/ml), CS-1-BSA (10 ug/ml), or specific monoclonal antibodies (anti-FcγRI mAb 276426, anti-α4β1 mAb 19H8, anti-β2 mAb 76C3, anti-αvβ3 mAb LM609 all at 5 ug/ml) overnight at 4°C in Tris-HCl pH 7.5, 150 mM NaCl, in 6-well plates (non-tissue culture treated, Becton Dickenson, cat# BD351146). Plates were then blocked with BSA (2% w/v) for 1 h at room temperature. […] After electrophoresis, proteins were transferred to nitrocellulose for 1 h 100 V room temperature, blocked in 5% non-fat milk in TBS-T, and probed with the indicated primary antibody at 1:1,000 overnight at 4°C, followed by species-appropriate HRP secondary antibody (Southern Biotech) at 1:5,000 (30 min at room temperature), and detected using Pierce West Pico (Thermo Scientific cat# 34580). […]
Figure 6 Selective inhibition of integrin signaling by ceftazidime. […] Data are expressed as mean ± range from duplicate determinations. […] Kinase activity is expressed as percent of maximum signal. Data are expressed as mean ± SEM (n = 3). **p < 0.01 (D) Selective effects of ceftazidime on integrin signaling. […] Phosphorylation of Syk (left and right panel) and Pyk-2 (center panel) was analyzed by immunoprecipitation and western blot. […] Results are expressed as the mean ± SEM. […]

[2] = target: T1, pITAM : Syk tandem SH2 domains (GST-Syk(6-370)) (Homo sapiens, UniProt P43405); assay: pITAM-Syk AlphaScreen; settings: read-out: IC50, inhibition of pITAM-Syk binding
T1 construct: made in house; host or cells: E. coli BL21(DE3)
Excerpt: Figure 6 Selective inhibition of integrin signaling by ceftazidime. (A) Schematic illustration of the pITAM-Syk AlphaScreen used to test antagonist selectivity. (B) Comparison between ceftazidime (Ctaz) and pITAM peptide inhibition of pITAM-Syk binding in the AlphaScreen assay described in (A). […] Data are expressed as mean ± range from duplicate determinations. One of four representative assays is shown. (C) Effect of ceftazidime on Syk kinase activity. Ceftazidime (Ctaz) or Syk inhibitor P505-15 was used at 100 uM. Kinase activity is expressed as percent of maximum signal. Data are expressed as mean ± SEM (n = 3). **p < 0.01 (D) Selective effects of ceftazidime on integrin signaling. […] Phosphorylation of Syk (left and right panel) and Pyk-2 (center panel) was analyzed by immunoprecipitation and western blot. […] Quantification is shown below (left panel, n = 5; center panel, n = 3; right panel, n = 3), normalized to phosphorylation in suspension. Results are expressed as the mean ± SEM. […] Expression of interleukin (IL)-1β and monocyte chemoattractant protein (MCP)-1 genes was examined by quantitative real-time polymerase chain reaction. Data are expressed as expression levels relative to control cells kept in suspension. […] P-values were calculated by the Student t test. […]

IC50 [2]: > 300 µM
SMILES: CC(C)(O/N=C(\C(=O)N[C@@H]1C(=O)N2C(C(=O)[O-])=C(C[n+]3ccccc3)CS[C@H]12)c1csc(N)n1)C(=O)O [ceftazidime]
tyrosine phosphorylation of Syk on FcγRI crosslinking [1]: not inhibited
